Patent US20130210034A1, “COMPLEX PHOSPHOPROTEIN ACTIVATION PROFILES” (BECKMAN COULTER, INC., priority 2005, published 2013)
“And” between values parts separate entries of the source, which are not always exact repeats. Equal entries are not always repeated.

Tests used:
Assay in all cases: Cytokine-stimulated phosphorylation in immunophenotypically defined cell populations from healthy donor BM (flow cytometry);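 as to pAKT S/N ratio: Phosphoprotein MFI normalized to lymphocyte MFI as internal negative control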;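 as to pERK S/N ratio: Phosphoprotein MFI normalized to lymphocyte MFI as internal negative control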
Format in all cases: cell-based, human
[1] = test system: pAKT; conditions: for pAKT Percent (%) Responding Cells, Mean / pAKT S/N ratio: healthy donor BM, mean ± SD;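 as to pAKT S/N ratio: Phosphoprotein MFI normalized to lymphocyte MFI as internal negative control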
Protocol: (§1) Bone marrow (BM) samples were collected in 7.5 mL Iscove's modified Dulbecco's medium (IMDM) supplemented with 100U penicillin, 0.01 mg/mL streptomycin, and 70 μg/mL heparin sodium salt from 10 patients undergoing hip replacement surgery, who were otherwise healthy. These patients were from a pool of surgery patients, age 49 to 77, and represented […] patients. […] These BM samples were rinsed twice with IMDM to release cells, filtered using a 100 μm Nylon cell strainer to remove marrow particles, and centrifuged for at RT fro 7 minutes at 200 g. The cell pellet was washed twice with sterile IMDM to remove traces of fat and re-suspended in IMDM to a concentration of 3×10^7 cells/mL.
(§2) To assess the signal transduction response after growth factor simulation, a series comprising two sets of tubes including about 3×10^6 cells/100 μL were incubated at 37° C. for 30 minutes. After this pre-incubation period, tubes with then processes with either a stimulant or inhibitor. […] To examine the effects of protein phosphorylation inhibition, tubes were incubated with an inhibitor cocktail comprising 100 μM/100 μL UO126, 1 μM/100 μL LY294002, and 1 μM/100 μL rapamycin. One unstimulated tube receiving no stimulant or inhibitor was processed to assess basal levels of phospho-protein expression. After stimulation the cells were immediately fixed in 10% formaldehyde solution at 37° C. Pre-labeling with CD13, CD16 and CD64 antibodies was carried out 20 minutes prior to formaldehyde fixation. After fixation, one set of tubes was permeabilized without methanol for pAKT, pERK and pS6 staining and the other for 80% methanol permeabilized for pSTAT3 and pSTAT5 staining. After permeablization, the cells were washed in PBS with 2% BSA and blocked by re-suspended in 75 μL of PBS comprising 25% heat inactivated normal mouse serum, 25% normal rabbit serum. To stain cells with fluorescent conjugated monoclonal antibodies, samples were incubated on ice for 45 minutes in 100 μL of an antibody staining solution including either: 1) CD15-Pacific Orange, CD34-Phycoerythrin-Texas Red, CD117-Phycoerythrin-Cyanin 5.5, CD45-Allophycocyanin-Alexa Fluor 750 (or CD45-Pacific Orange, in which case CD15-Pacific Orange was omitted), pS6-Pacific Blue, pERK-Alexa Fluor 488 and pAKT-Alexa Fluor 647 or 2) CD15-Pacific Orange, CD34-Phycoerythrin-Texas Red, CD117-Phycoerythrin-Cyanin 5.5, CD45-Allophycocyanin-Alexa Fluor 750 or CD45-Pacific Blue, pSTAT3-Alexa Fluor 488 and pSTAT5-Phycoerythrin. The stained cells were washed twice with ice cold PBS containing 2% BSA and centrifuged at 800 g for 6 minutes at 4° C. The supernatant was discarded and cells re-suspended in 250 μL of chilled wash buffer for data acquisition. Stained cells were examined using either GALIOS flow cytometer (Beckman Coulter) or CYAN ADP (Beckman Coulter) equipped with 488 nm, 405 nm and 635 nm lasers to detect the degree of fluorescence. Data were analyzed using FCS Express (De Novo Software, CA) analysis software.
(§3) Specific phosphoprotein expression of pERK, pS6, pAKT, pSTAT5, and pSTAT3 was examined in seven discrete phenotypically defined populations based on 7-color immunophenotyping (FIG. 1). The percent of responding (phosphorprotein positive) cells for each of these populations was determined from individual single parameter histograms based on a fixed integration region set on the inhibitor treated control at about 3% positives.

[2] = test system: pERK; conditions: for pERK Percent (%) Responding Cells, Mean / pERK S/N ratio: healthy donor BM, mean ± SD;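 as to pERK S/N ratio: Phosphoprotein MFI normalized to lymphocyte MFI as internal negative control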
Protocol: as §1, §2, §3

[3] = test system: pS6; conditions: for pS6 Percent (%) Responding Cells, Mean / pS6 S/N ratio: healthy donor BM, mean ± SD
Protocol: as §1, §2, §3

[4] = test system: pSTAT3; conditions: healthy donor BM, mean ± SD
Protocol: as §1, §2, §3

[5] = test system: pSTAT5; conditions: healthy donor BM, mean ± SD
Protocol: as §1, §2, §3

Stem Cell Factor [SCF]
pAKT Percent (%) Responding Cells, Mean ([1]; CD34^+ (CD34^+/CD117^+ cells)): 58.0% and 58.0 ± 27.3%
pAKT S/N ratio ([1]; CD34^+ (CD34^+/CD117^+ cells)): 7.5 and 7.5 ± 5.7
pAKT Percent (%) Responding Cells, Mean ([1]; CD117^+ (CD34^−/CD117^+ cells)): 60.6% and 60.6 ± 33.5%
pAKT S/N ratio ([1]; CD117^+ (CD34^−/CD117^+ cells)): 7.3 ± 5.4
pAKT Percent (%) Responding Cells, Mean ([1]; G1, immature myeloid cells): 2.9 ± 2.4%
pAKT S/N ratio ([1]; G1, immature myeloid cells): 2.2 ± 1.1
pAKT Percent (%) Responding Cells, Mean ([1]; G2, intermediate myeloid cells): 3.9 ± 3.9%
pAKT S/N ratio ([1]; G2, intermediate myeloid cells): 2.3 ± 1.0
pAKT Percent (%) Responding Cells, Mean ([1]; G3, mature myeloid cells): 4.2 ± 3.0%
pAKT S/N ratio ([1]; G3, mature myeloid cells): 2.6 ± 1.2
pAKT Percent (%) Responding Cells, Mean ([1]; Mono, monocytes): 6.5 ± 8.2%
pAKT S/N ratio ([1]; Mono, monocytes): 2.4 ± 1.0
pAKT, Normal Sample ([1]; Table 7 comparison value): 58.0
pERK Percent (%) Responding Cells, Mean ([2]; CD34^+ (CD34^+/CD117^+ cells)): 89.8% and 89.8 ± 6.9%
pERK S/N ratio ([2]; CD34^+ (CD34^+/CD117^+ cells)): 13.3 and 13.3 ± 4.9
pERK Percent (%) Responding Cells, Mean ([2]; CD117^+ (CD34^−/CD117^+ cells)): 67.7% and 67.7 ± 20.1%
pERK S/N ratio ([2]; CD117^+ (CD34^−/CD117^+ cells)): 8.6 ± 3.2
pERK Percent (%) Responding Cells, Mean ([2]; G1, immature myeloid cells): 1.6 ± 0.8%
pERK S/N ratio ([2]; G1, immature myeloid cells): 2.9 ± 0.6
pERK Percent (%) Responding Cells, Mean ([2]; G2, intermediate myeloid cells): 2.8 ± 2.1%
pERK S/N ratio ([2]; G2, intermediate myeloid cells): 2.7 ± 0.5
pERK Percent (%) Responding Cells, Mean ([2]; G3, mature myeloid cells): 6.5 ± 7.2%
pERK S/N ratio ([2]; G3, mature myeloid cells): 3.1 ± 0.6
pERK Percent (%) Responding Cells, Mean ([2]; Mono, monocytes): 13.6 ± 3.6%
pERK S/N ratio ([2]; Mono, monocytes): 3.2 ± 2.1
pERK, Normal Sample (first AML5 line) ([2]; Table 7 comparison value, matches S/N ratio of Table 1): 13.3
pERK, Normal Sample ([2]; Table 7 comparison value, matches percent responding CD34^+ cells of Tables 1-5): 89.8
pS6 Percent (%) Responding Cells, Mean ([3]; CD34^+ (CD34^+/CD117^+ cells)): 81.7% and 81.7 ± 16.3%
pS6 S/N ratio ([3]; CD34^+ (CD34^+/CD117^+ cells)): 48.4 and 48.4 ± 39.3
pS6 fraction positive responding ([3]; CD34^−CD117^+ cells, normal BM, non-homogeneous response): 53.8%
pS6 Percent (%) Responding Cells, Mean ([3]; CD117^+ (CD34^−/CD117^+ cells)): 51.9% and 51.9 ± 16.9%
pS6 S/N ratio ([3]; CD117^+ (CD34^−/CD117^+ cells)): 108.2 ± 94.9
pS6 Percent (%) Responding Cells, Mean ([3]; G1, immature myeloid cells): 2.1 ± 1.4%
pS6 S/N ratio ([3]; G1, immature myeloid cells): 3.3 ± 1.9
pS6 Percent (%) Responding Cells, Mean ([3]; G2, intermediate myeloid cells): 2.1 ± 1.2%
pS6 S/N ratio ([3]; G2, intermediate myeloid cells): 2.9 ± 1.8
pS6 Percent (%) Responding Cells, Mean ([3]; G3, mature myeloid cells): 3.8 ± 2.6%
pS6 S/N ratio ([3]; G3, mature myeloid cells): 3.5 ± 2.3
pS6 Percent (%) Responding Cells, Mean ([3]; Mono, monocytes): 43.5 ± 19.9%
pS6 S/N ratio ([3]; Mono, monocytes): 11.2 ± 12.3
pSTAT3 Percent (%) Responding Cells, Mean ([4]; CD34^+ (CD34^+/CD117^+ cells)): 7.3 ± 4.3%
pSTAT3 S/N ratio ([4]; CD34^+ (CD34^+/CD117^+ cells)): 1.9 ± 0.2
pSTAT3 Percent (%) Responding Cells, Mean ([4]; CD117^+ (CD34^−/CD117^+ cells)): 2.6 ± 1.4%
pSTAT3 S/N ratio ([4]; CD117^+ (CD34^−/CD117^+ cells)): 2.5 ± 0.6
pSTAT3 Percent (%) Responding Cells, Mean ([4]; G1, immature myeloid cells): 3.0 ± 3.5%
pSTAT3 S/N ratio ([4]; G1, immature myeloid cells): 3.3 ± 0.5
pSTAT3 Percent (%) Responding Cells, Mean ([4]; G2, intermediate myeloid cells): 2.2 ± 1.8%
pSTAT3 S/N ratio ([4]; G2, intermediate myeloid cells): 3.3 ± 0.5
pSTAT3 Percent (%) Responding Cells, Mean ([4]; G3, mature myeloid cells): 4.7 ± 4.0%
pSTAT3 S/N ratio ([4]; G3, mature myeloid cells): 3.6 ± 0.6
pSTAT3 Percent (%) Responding Cells, Mean ([4]; Mono, monocytes): 4.4 ± 2.0%
pSTAT3 S/N ratio ([4]; Mono, monocytes): 2.4 ± 0.3
pSTAT5 Percent (%) Responding Cells, Mean ([5]; CD34^+ (CD34^+/CD117^+ cells)): 11.6 ± 3.0%
pSTAT5 S/N ratio ([5]; CD34^+ (CD34^+/CD117^+ cells)): 1.5 ± 0.9
pSTAT5 Percent (%) Responding Cells, Mean ([5]; CD117^+ (CD34^−/CD117^+ cells)): 7.4 ± 4.7%
pSTAT5 S/N ratio ([5]; CD117^+ (CD34^−/CD117^+ cells)): 2.2 ± 0.7
pSTAT5 Percent (%) Responding Cells, Mean ([5]; G1, immature myeloid cells): 6.8 ± 8.0%
pSTAT5 S/N ratio ([5]; G1, immature myeloid cells): 3.1 ± 0.7
pSTAT5 Percent (%) Responding Cells, Mean ([5]; G2, intermediate myeloid cells): 4.9 ± 5.6%
pSTAT5 S/N ratio ([5]; G2, intermediate myeloid cells): 3.2 ± 0.7
pSTAT5 Percent (%) Responding Cells, Mean ([5]; G3, mature myeloid cells): 6.9 ± 6.7%
pSTAT5 S/N ratio ([5]; G3, mature myeloid cells): 3.8 ± 0.8
pSTAT5 Percent (%) Responding Cells, Mean ([5]; Mono, monocytes): 9.5 ± 13.8%
pSTAT5 S/N ratio ([5]; Mono, monocytes): 2.5 ± 0.6
